The values below come from ChEMBL document CHEMBL3507680, “University of Dundee, Gates Library screen for HepG2 cell viability”.

The data set can be described thus: Human HepG2 cell viability assay in 384 well format. It counts as toxicity, cell-based. The conditions noted are these: HepG2 cells, read-out: Inhibition. Further details: dose 125 nL, time 70.5 hour; cytotoxicity at 70.5 h: concentration not given beside the values.
As for `Cc1ccc(C)c(-n2cc(CN3CCOCC3)c(-c3ccccc3)n2)c1`, the cytotoxicity at 70.5 h was -3.83%.

For `CCOCC1C[C@@H]2OCCN(C(=O)c3ccc[nH]3)[C@H]2C1` (some centres undefined), the cytotoxicity at 70.5 h was -6.8%.

With `CNS(=O)(=O)c1cccc(C(C)NCc2cccc(C)c2C)c1` (centres undefined), the cytotoxicity at 70.5 h was -12.2%.

Consider `O=C(c1ccsc1)N1C[C@@H]2OCCN(CCN3CCCC3)[C@@H]2C1`, for which the cytotoxicity at 70.5 h turned out to be 16.6%.

`O=C(NCC1CCS(=O)(=O)C1)N(Cc1ccncc1)C1CC1` (centres undefined): the cytotoxicity at 70.5 h is -6.32%.

For the compound `COCCN1CCN(Cc2nc3c(s2)CCCC3)[C@H]2CS(=O)(=O)C[C@H]21`, the cytotoxicity at 70.5 h is -8.18%.

Regarding `CSC1(CNC(=O)CCc2ccc(Cl)s2)CCOCC1`, the cytotoxicity at 70.5 h is -5.64%.

Take `Cc1ccoc1C(=O)N1C[C@@H]2[C@@H](C1)OCC(=O)N2Cc1cccnc1`: the cytotoxicity at 70.5 h was 29.7%.

Take `Cc1nc(C)n(CC2CCCCN2CCc2ccncc2)n1` (centres undefined): the cytotoxicity at 70.5 h worked out at 16.8%.

Regarding `CC(=O)N(Cc1noc(C2CC2)n1)C1CCN(CC2CCOCC2)C1` (centres undefined), the cytotoxicity at 70.5 h amounted to 22.1%.

For the compound `CCC(CC)C(=O)N1CCN(Cc2cc(=O)c3ccccc3[nH]2)CC1`, the cytotoxicity at 70.5 h came to 7.24%.

As to `COc1ccc2nc(C3CC3)cc(C(=O)NCc3noc(C)n3)c2c1`, the cytotoxicity at 70.5 h is -1.37%.

Take `Cc1noc(C2CCCN(CC(=O)N3CCNC(=O)C3)C2)n1` (centres undefined): the cytotoxicity at 70.5 h was -4.79%.

As for `CN1CCCCCC1C(=O)N1CCN(c2ccccc2C#N)CC1` (centres undefined), the cytotoxicity at 70.5 h is -8.6%.

With `CCN(CCO)C[C@@H]1CN(C(=O)c2sc3ccccc3c2C)C[C@@H]1CO`, the cytotoxicity at 70.5 h stood at 8.11%.

In the case of `CNCC[C@H]1CC(C)(C)Oc2ccc(OCC3CC3)cc21`, the cytotoxicity at 70.5 h is 7.09%.

On to `Cc1ccc(CN2CC3(CCN(C(=O)C4CC4)CC3)CC2C(=O)O)o1` (centres undefined), for which the cytotoxicity at 70.5 h was -2.54%.

As to `CCN(C)Cc1cccc(CNC(=O)CSCc2ccncc2)c1`, the cytotoxicity at 70.5 h was -6.72%.

As for `CN(Cc1ccccn1)C(=O)c1nn(C)c2c1CCN(CC1CC1)C2`, the cytotoxicity at 70.5 h is -1.96%.

Turning to `O=C(c1cscn1)N1CC[C@@H]2[C@@H]1CCN2C1CCOC1` (some centres undefined), the cytotoxicity at 70.5 h was -1.49%.

Take `COC(CNC(=O)c1ccc[nH]1)c1cccc(Cl)c1` (centres undefined): the cytotoxicity at 70.5 h amounted to 10.5%.

Consider `Cn1ccc2c(-c3cc(N4CCCCC4)ncn3)ccnc21`, for which the cytotoxicity at 70.5 h amounted to 24.9%.

With `CCc1[nH]n(C)c(=N)c1-c1ccc2c(c1)OCO2`, the cytotoxicity at 70.5 h is -6.78%.

As to `Cc1cc(C(=O)N2CCN(c3nc4c(C)cccc4s3)CC2)no1`, the cytotoxicity at 70.5 h worked out at 9.18%.

`CCOc1cccc(COC(=O)c2cscn2)n1`: the cytotoxicity at 70.5 h was -4.87%.

Regarding `O=C(Cc1cccs1)N1CCC2(CC1)COCCN2CC1CC1`, the cytotoxicity at 70.5 h was -8.87%.

Consider `CN(C)CCn1c2c(ccc1=O)CCN(Cc1ccncc1)CC2`, for which the cytotoxicity at 70.5 h was -4.6%.

Turning to `Cc1nnsc1-c1nnc2sc(C3CCC3)nn12`, the cytotoxicity at 70.5 h is -10%.

For `CN(C)C(=O)N1CCN(C(=O)c2ccc(Cl)c(Cl)c2)C(C)(C)C1`, the cytotoxicity at 70.5 h was found to be 0.62%.

On to `CS(=O)(=O)c1ccc(-c2ccccc2C(=O)O)cc1`, for which the cytotoxicity at 70.5 h is -4.68%.

Regarding `CN(C)S(=O)(=O)N1C[C@@H]2CC[C@H](C1)N(Cc1ccc3nsnc3c1)C2`, the cytotoxicity at 70.5 h was 5.66%.

With `Cc1ccc(OC2(C(=O)NC(C)Cc3ccsc3)CCNCC2)cc1` (centres undefined), the cytotoxicity at 70.5 h was found to be 7.16%.

As to `O=C(c1ccc(COc2ccc(Cl)cc2)o1)N1N=CCC1(O)C(F)(F)F` (centres undefined), the cytotoxicity at 70.5 h was determined as 10.7%.

For `CCc1csc(CNc2cc(C)nc(-c3cccnc3)n2)n1`, the cytotoxicity at 70.5 h is -7.79%.

As for `Cc1cnn(C2CCCN(C(=O)CCCn3ccnc3C)C2)c1` (centres undefined), the cytotoxicity at 70.5 h was 19.3%.

For the compound `CCN(CC)C(=O)CC[C@@H]1CNC(=O)[C@@H]2C[C@H](NC(=O)C3CC3)CN12`, the cytotoxicity at 70.5 h was -2.96%.

Regarding `COc1ccccc1Oc1cncc(C2CCCN(C)C2)n1` (centres undefined), the cytotoxicity at 70.5 h was -5.97%.

In the case of `Cc1ccc(-c2nnc(CN3CC[C@H](CO)[C@@H](O)C3)o2)n1C`, the cytotoxicity at 70.5 h was -2.96%.

`Cc1cccnc1N1CCN(C(=O)CCc2ccccn2)CC1`: the cytotoxicity at 70.5 h is 20.1%.

For `CCN(CC)C(=O)C1CCCN(c2ncnc3oc(C)nc23)C1` (centres undefined), the cytotoxicity at 70.5 h is -5.71%.

Turning to `CN(CCN1CCOCC1)C(=O)C1(c2ccc(F)cc2F)CCC1`, the cytotoxicity at 70.5 h was -2.7%.

Turning to `CCOc1ccccc1-n1c(C2CC(=O)N(C)C2)n[nH]c1=O` (centres undefined), the cytotoxicity at 70.5 h was -25.4%.

Take `Cc1n[nH]c2c1C(c1ccc3c(c1)OCO3)SCC(=O)N2` (centres undefined): the cytotoxicity at 70.5 h is 25.4%.

In the case of `CCC(C)(CC(=O)OC)NC(=O)c1cccc(F)c1F` (centres undefined), the cytotoxicity at 70.5 h was -14.7%.

`Cc1cnc(C)c(N2CCN(CCCc3[nH]nc(C)c3C)CC2)n1`: the cytotoxicity at 70.5 h came to 1.19%.

Take `Cc1csc(C(C#N)C(=O)NCc2ccccc2)n1` (centres undefined): the cytotoxicity at 70.5 h is -6.71%.

For `c1cc(-c2nc(CN3CCn4c(nnc4C4CC4)C3)cs2)cs1`, the cytotoxicity at 70.5 h is -25.2%.

For the compound `CN(C)c1cccc(C(=O)Nc2ccn(CCc3ccncc3)n2)c1`, the cytotoxicity at 70.5 h is -12.6%.

Turning to `CN(C)C(=O)Cn1c2c(ccc1=O)CC(NCc1ccoc1)CC2` (centres undefined), the cytotoxicity at 70.5 h is 1.44%.

As to `Cc1nc(CN2CCCC(NCc3cnc(C(C)(C)C)s3)C2)no1` (centres undefined), the cytotoxicity at 70.5 h stood at 2.91%.

For the compound `CCSc1nnc([C@@H](N)CC(C)C)o1`, the cytotoxicity at 70.5 h is -7.55%.

On to `CCC(CO)N(Cc1cccc(-n2cccn2)c1)Cc1cccs1` (centres undefined), for which the cytotoxicity at 70.5 h is -4.44%.

On to `COc1ccc(CN2CC[C@H]3[C@H]2CC(=O)N3Cc2cccc(C)n2)cc1`, for which the cytotoxicity at 70.5 h is -7.27%.

Turning to `Cc1ccsc1CNC(=O)CC1CN(C(=O)OC(C)(C)C)C1`, the cytotoxicity at 70.5 h is -9.31%.

With `Cc1ncc(CC(=O)N2CCCC(COc3ccc(F)cc3)C2)c(=O)[nH]1` (centres undefined), the cytotoxicity at 70.5 h came to 2.89%.

With `CC(C)C(NCc1ccc(Cn2cncn2)cc1)c1ccc(F)cn1` (centres undefined), the cytotoxicity at 70.5 h was -0.795%.

Regarding `CCOCc1nc2c(c(N3CCN4CCCC4C3)n1)CCNCC2` (centres undefined), the cytotoxicity at 70.5 h is -13.6%.

As to `CC(c1ccco1)N(C(=O)COc1ccc(C#N)cc1)C1CC1` (centres undefined), the cytotoxicity at 70.5 h was -6.31%.

As for `Cc1cc(C(=O)N2CCn3nc(C(=O)NC4CC4)cc3C2)nc(C)n1`, the cytotoxicity at 70.5 h is -2.56%.

As for `CC(C)c1nc(CN2CCN(C(=O)Cc3ccccc3Cl)CC2)no1`, the cytotoxicity at 70.5 h was -1.7%.

As to `c1ccc(Cc2n[nH]c(C3CCOC3)n2)cc1` (centres undefined), the cytotoxicity at 70.5 h is -3.76%.

For the compound `CC/C=C(/C)C(=O)NCc1ccc(OC)nc1`, the cytotoxicity at 70.5 h is -13.3%.

In the case of `Cn1cc(C[C@H]2[C@H](N3CCOCC3)CCN2C2CCOCC2)cn1`, the cytotoxicity at 70.5 h is -13.7%.

`CC(C)N1CCOC(CC(=O)N2CCCN(Cc3ccncc3)CC2)C1` (centres undefined): the cytotoxicity at 70.5 h was determined as 15.7%.

Consider `CC(C)N(C)Cc1cncc2c1CCN(Cc1ccoc1)C2`, for which the cytotoxicity at 70.5 h is -1.23%.

In the case of `CCCN(CCOC)c1nc(C)nc2sccc12`, the cytotoxicity at 70.5 h came out at 13.4%.

`CCOCC1CN(C(=O)c2ccco2)Cc2nn(C)cc21` (centres undefined): the cytotoxicity at 70.5 h was -9.75%.

As to `CCNC(=O)N1CCC2(CC1)CCn1c(C3CC3)cnc12`, the cytotoxicity at 70.5 h came out at 30.6%.

As to `O=C(CCn1ccc2cc(Br)ccc21)/N=c1\[nH]nc(C2CCCO2)s1` (centres undefined), the cytotoxicity at 70.5 h is -12%.

Regarding `COCC1CC2(CCN(c3ccc(C)nn3)CC2)CN1C(C)C` (centres undefined), the cytotoxicity at 70.5 h is -10.4%.

In the case of `c1cc2c(cc1CN1CCN(Cc3noc(C4CC4)n3)CC1)OCO2`, the cytotoxicity at 70.5 h is -2.86%.

`COc1c(C2CCCN2C(=O)c2cnn(C)c2C2CC2)c(C)nn1C` (centres undefined): the cytotoxicity at 70.5 h is -2.81%.

Take `c1cncc(-c2noc(CN3CCOC(Cn4cccn4)C3)n2)c1` (centres undefined): the cytotoxicity at 70.5 h was -4.62%.

As to `Nc1no[n+]([O-])c1C(=O)NCc1ccccn1`, the cytotoxicity at 70.5 h was -13.7%.

`O=C(NCC1(N2CCOCC2)CCSC1)Nc1ccncc1` (centres undefined): the cytotoxicity at 70.5 h was -6.91%.

In the case of `CC(C)=CCN1CCC2(CC1)c1ccccc1[C@@H](N1CCSCC1)[C@@H]2O`, the cytotoxicity at 70.5 h is -4.97%.

For `Cc1cnc(CC2COCCN(C(=O)c3cncnc3)C2)cn1` (centres undefined), the cytotoxicity at 70.5 h was -5.02%.

In the case of `CC(=O)N1CCCC1c1nnc2n1CCCCC2` (centres undefined), the cytotoxicity at 70.5 h is 2.96%.

With `O=C(c1ccco1)N1CCCC2(CCN(CCN3CCCC3)C2=O)C1` (centres undefined), the cytotoxicity at 70.5 h was -3.97%.

In the case of `CN1CC[C@H](c2nnc(-c3cncn3C)o2)C1`, the cytotoxicity at 70.5 h is -0.523%.

Regarding `c1cc(OCc2ccc3c(c2)OCCO3)ccc1CNC1CC1`, the cytotoxicity at 70.5 h was found to be 22.8%.

As to `COc1ccc(F)cc1C(C)NC(=O)Nc1nncs1` (centres undefined), the cytotoxicity at 70.5 h is 4.1%.

As to `CC(CNC(=O)OC(C)(C)C)N(C)C(=O)COc1ccccc1C#N` (centres undefined), the cytotoxicity at 70.5 h is -12.1%.

As for `CN1CCC2(Cc3ccccc3CN(C(=O)CCN)C2)C1` (centres undefined), the cytotoxicity at 70.5 h was determined as 27.3%.

As for `O=C(C1CC1)N1CCC2(CC1)OCCO2`, the cytotoxicity at 70.5 h is -6.55%.

Consider `CSCC(=O)N(C)Cc1cnn(-c2ccc(F)cc2)c1`, for which the cytotoxicity at 70.5 h was determined as 3.1%.

With `Cc1ccc(CN2Cc3nnn(C)c3C(COCCN(C)C)C2)s1` (centres undefined), the cytotoxicity at 70.5 h is -4.13%.

For the compound `CN(C)c1ncccc1CNS(=O)(=O)c1ccccc1F`, the cytotoxicity at 70.5 h is -27.7%.

Turning to `COCCC1CCCCN1Cc1nc(C2CC2)no1` (centres undefined), the cytotoxicity at 70.5 h is -9.77%.

Turning to `COc1ccc(CN2CCC3(CCCN(C)C3=O)C2)c(OC)c1C` (centres undefined), the cytotoxicity at 70.5 h was -10.1%.

As for `Cc1nc(N(C)C)ncc1C(=O)NCCc1csc(-c2ccncc2)n1`, the cytotoxicity at 70.5 h is -12.4%.

Take `CCC(=O)N1CCCC(c2ncc3c(n2)CCN(C)C3)C1` (centres undefined): the cytotoxicity at 70.5 h is -8.89%.

On to `CCNC(=O)[C@H]1CN(Cc2ccccc2)C[C@@H]1C(=O)c1ccccc1`, for which the cytotoxicity at 70.5 h was -12.3%.

As for `Cc1nn2cccnc2c1C(=O)NCc1ccccc1OCC1CC1`, the cytotoxicity at 70.5 h was -13.8%.

Take `Cc1nc(CNc2cccc(Cl)c2Cl)cs1`: the cytotoxicity at 70.5 h came to 16.5%.

On to `CNC(=O)c1cccc(CN2CCN(c3ccncc3)CC2)c1`, for which the cytotoxicity at 70.5 h is 0.282%.

Regarding `CCc1cc(N(C)Cc2ccncn2)n2nc(C)c(C)c2n1`, the cytotoxicity at 70.5 h is -5.09%.

Consider `COC(=O)CCN(C)C(=O)c1csc(Cc2ccccc2F)n1`, for which the cytotoxicity at 70.5 h is 0.501%.

Regarding `CC(O)CN1CCN(C(=O)c2sccc2C2CC2)CC1` (centres undefined), the cytotoxicity at 70.5 h is -5.67%.
